Experimental data from patent US20050118565A1, “Systems and methods for assessing neuronal degeneration” (priority 2003, published 2005).

Columns and labels:
[1] = test system: cultured hippocampal samples; experiment: fEPSP recording on MED probe: neurodegeneration induced by NMDA and AMPA; assay type: cell-based, Sprague-Dawley rats; settings: for effect of chronic exposure on synaptic responses: chronic exposure of cultured hippocampal samples; for Hill coefficient: electrophysiology dose-response curve; for EC50: electrophysiology, various concentrations of agonist, read-out: EC50 (decrease of synaptic responses, Hill fit of plateau values of I/O curves); for synaptic responses, of the initial amplitude: then one hour of NMDA wash-out
Procedure: Before use, the MED probes (Panasonic, model MED-P530AP, each electrode: […], interpolar distance: 300 μm) were soaked in 70% ethanol for 15 minutes, dried, and then sterilized with UV radiation for 15 minutes. The probe surfaces were treated overnight at room temperature with 0.1% polyethylenimine and 25 mM borate buffer, pH 8.4. The probe surface was then dried and rinsed 3 times with sterile distilled water. Finally, the probes were filled with culture medium and stored in a CO2 incubator until use (for at least one hour). The culture medium was a 2:1 mixture of Basal Medium Eagle Medium (Sigma, Catalog No. B9638) and Earle Balanced Salts Solution (Sigma, Catalog No. E7510), supplemented with the following compounds (in mM): NaCl (20), NaHCO3 (5), CaCl2 (0.2), MgSO4 (1.7), glucose (48), HEPES (26.7); 5% horse serum (GIBCO, Catalog No. 26050) and 10 ml/L penicillin-streptomycin (GIBCO, Catalog No. 10378). The pH of culture medium was then adjusted to 7.2.
All procedures for culture preparation were carried out under a sterilized bench. Eleven day-old Sprague-Dawley rats were first sterilized with 70% ethanol, sacrificed by decapitation following anesthesia and the whole brain removed. The brains were immediately soaked in sterile ice-cold MEM (pH 7.2; GIBCO, Catalog No. 61100), supplemented with HEPES (25 mM), Tris-base (10 mM), glucose (10 mM) and MgCl2 (3 mM). Appropriate portions of the brain were then trimmed by hand and the remaining brain block placed on an ice-cold stage of a vibrating tissue slicer (Leica, model VT1000S). The thickness of the slices was set at 200 μm. The slices were gently taken off from the blade with a pipette. Each slice was trimmed, placed on the center of the MED probe, which was previously coated as mentioned above, and positioned to cover the 8×8 microelectrode array.
After positioning the section on the MED probe, the cutting solution was removed and culture medium added to the slice up to an interface level (approximately […]). Sterile distilled water was added around the probe to increase humidity and prevent over-drying of the culture medium in the MED probe. The slices on the MED probes were then stored in a CO2 incubator at 34° C. The medium was exchanged with half volume every day.
(§1) For baseline electrophysiological recordings in hippocampal samples, the MED probes containing the samples were removed from the incubator and placed in a smaller CO2 incubator at 34° C. and connected to the stimulation/recording component of the probe. The culture medium was replaced with sterile artificial cerebrospinal fluid (ACSF) of the following composition (in mM): NaCl (124), NaHCO3 (26), glucose (10), KCl (3), NaH2PO4 (1.25), CaCl2 (2), MgSO4 (1), and HEPES (10).
(§2) Evoked field potentials at all 64 sites were then recorded simultaneously with the multi-channel recording system (Panasonic, MED64 system) at a 20 kHz sampling rate. One of the planar microelectrodes of the 64 available was used for cathode stimulation. Bipolar constant current pulses (10 to 45 μA, 0.1 msec) were then produced. To collect typical responses in field CA1, one of the electrodes in the Schaffer collateral fibers was selected as a stimulating electrode while another one in stratum radiatum was selected as a recording electrode. Synaptic responses were recorded at eight-step stimulation intensities (10 to 45 μA, 5 μA steps). After each recording session, ACSF was replaced with culture medium and the samples in the probes were returned to the CO2 incubator.
fEPSPs were recorded at 20 s intervals using a paired-pulse stimulation paradigm with an inter-pulse interval of 50 msec. […] Slope and decay time of the responses were remarkably similar to those recorded in acutely prepared slices using the same system (FIG. 2C). […]

[2] = test system: cultured hippocampal samples; experiment: PI uptake method, dose-response of excitotoxins; assay type: cell-based; settings: for Hill coefficient (PI uptake method): PI uptake dose-response curve; for EC50: PI uptake, read-out: EC50 from the PI uptake method
Procedure: The mechanisms underlying the reduction in amplitude of synaptic responses produced by incubation with these two excitotoxins were further studied by applying various concentrations of NMDA and AMPA to tissue samples. As in the control experiments, the plateau values of the respective I/O curves were used for the analysis (FIGS. 4A and 4B). […] For comparison, dose-response curves obtained with the PI uptake method were plotted in the same figures (FIGS. 4A and 4B, open circles and dashed lines).

[3] = test system: neuronal samples chronically exposed to NMDA; experiment: Neuroprotectant assay: fEPSP amplitude on MED probe with 10 μM NMDA as excitotoxin; assay type: cell-based, Sprague-Dawley rats
Procedure: An assay for identifying neuroprotectants first involves testing the stability of the recordings by comparing FEPSP amplitudes measured at the beginning of the experiments with those measured later, e.g., after at least 3, 24, 48, and 72 hours at the same stimulation intensity (FIG. 1C). For data analysis, the amplitude of the maximal (plateau) value of the I/O curve is used to determine stability of the recordings. Typically, it corresponds to responses obtained by stimulation intensities of […] (FIG. 2B).
NMDA was selected as the excitotoxin. Based on the dose-response analysis described above (FIG. 4A), 10 μM NMDA was chosen as the concentration of agonist for use in this neuroprotectant assay. […] The neuronal samples and MED probes were prepared as described above.
After performing control measurements, neuronal samples were incubated in culture medium containing 10 μM NMDA and 1 μM MK-801 for various periods of time. […] The relative amplitude of synaptic responses measured at stimulation intensities corresponding to the plateau of I/O curves after 3 days of incubation was 91±6% of control (n=3).
After performing control measurements, neuronal samples were incubated in culture medium containing 10 μM NMDA and 30 μM memantine for various periods of time. […] However the degree of protection was much smaller than that provided by MK-801, as only 78±5% (n=3) of the initial amplitude was preserved under these conditions. The concentration dependency of memantine protection was studied using 10 μM NMDA and various concentrations of memantine.

neuronal samples = experiment: fEPSP recording on MED probe: incubation with NMDA antagonist alone; assay type: cell-based, Sprague-Dawley rats; settings: for amplitudes of responses, of control: n=3
Procedure: as §1, §2
However, after 1, 2, and 3 days of incubation, the amplitudes of responses were decreased to 83±6%, 79±11%, and 76±10% (n=3) of control, respectively.

Question: Which results are given for `Cc1onc(O)c1CC(N)C(=O)O` (stereo not drawn) [AMPA, amino-3-hydroxy-5-methyl-4-isoxazolepropionic acid]?
Answer: recovery of synaptic responses after agonist removal ([1]; 1 μM AMPA 3 days, then 24 hours of AMPA removal): no recovery was observed; time course of the decrease in synaptic response ([1]; 1 μM AMPA, three hours and subsequent time points): continued to decrease at subsequent time points, stabilizing after 1 day; amplitude of synaptic responses, of control values ([1]; 40 min. incubation with 3 μM AMPA, n=3): 12±5%; synaptic response amplitudes ([1]; 3 days of incubation with 1 μM AMPA, n=3): 46±4%; effect of chronic exposure on synaptic responses [1]: dose-dependent decreases in synaptic responses; Hill coefficient [1]: 2.6±0.8; EC50 [1]: 0.81 ± 0.1 µM; Hill coefficient (PI uptake method) [2]: 2.0±0.1; EC50 [2]: 3.87 ± 0.1 µM

Question: How did the “protection of synaptic transmission against NMDA-mediated neurotoxicity” value ([3]; 10 μM NMDA and 1 μM MK-801, 3 hours up to 3 days) turn out when `C[C@]12N[C@H](Cc3ccccc31)c1ccccc12` [MK-801] was run?
Answer: almost completely protected

Question: What about the “relative amplitude of synaptic responses at plateau of I/O curves, of control” value ([3]; 10 μM NMDA and 1 μM MK-801, 3 days of incubation, n=3) of the same molecule?
Answer: 91±6%

Question: And the synaptic responses (neuronal samples; 1 μM MK-801 alone, 3 hours of incubation)?
Answer: not affected

Question: And the “amplitudes of responses, of control” value (neuronal samples; 1 μM MK-801 alone, 1 day of incubation)?
Answer: 83±6%

Question: And the “amplitudes of responses, of control” value (neuronal samples; 1 μM MK-801 alone, 2 days of incubation)?
Answer: 79±11%

Question: And the “amplitudes of responses, of control” value (neuronal samples; 1 μM MK-801 alone, 3 days of incubation)?
Answer: 76±10%

Question: Which results are given for `CN[C@H](CC(=O)O)C(=O)O` [NMDA, N-methyl-D-aspartate]?
Answer: synaptic responses, of the initial amplitude ([1]; 10 μM NMDA for 40 min.): 109±4%; synaptic responses, of the initial amplitude ([1]; 10 μM NMDA for 3 hours): 66±5%; synaptic responses, of the initial amplitude ([1]; 10 μM NMDA for 1 day): 52±2%; synaptic responses, of the initial amplitude ([1]; 10 μM NMDA for 3 days): 18±3%; maximal amplitude of synaptic responses, of control values ([1]; 10 μM NMDA, three hours of incubation, n=3): 18±4%; effect of chronic exposure on synaptic responses [1]: dose-dependent decreases in synaptic responses; Hill coefficient [1]: 1.7±0.2; EC50 [1]: 5.2 ± 0.5 µM; amplitude of synaptic responses, of control values ([1]; end of incubation with 10 μM NMDA for 40 min., n=3): 48±12%; amplitude of synaptic responses, of control values ([1]; end of incubation with 10 μM NMDA for 3 hours, n=3): 22±7%; amplitude of synaptic responses, of control values ([1]; end of incubation with 10 μM NMDA for 1 day, n=3): 13±3%; amplitude of synaptic responses, of control values ([1]; end of incubation with 10 μM NMDA for 3 days, n=3): 11±3%; Hill coefficient (PI uptake method) [2]: 3.7±1.0; EC50 [2]: 21.6 ± 3.4 µM

Question: What does the source list for `CC12CC3CC(C)(C1)CC(N)(C3)C2` [memantine]?
Answer: initial amplitude preserved ([3]; 10 μM NMDA and 30 μM memantine, up to 3 days of incubation, n=3): 78±5%; Hill coefficient of protection ([3]; 10 μM NMDA and various concentrations of memantine): 1.1±3; IC50 ([3]; Rattus norvegicus, 10 μM NMDA and various concentrations of memantine, read-out: IC50 of protection (Hill equation)): 6.9 ± 1.6 µM; synaptic transmission (neuronal samples; memantine alone, even at 30 μM, long-term incubation): did not result in a significant decrease
